Measured values: patent US20080227096A1, “Assay for response to proteasome inhibitors” (Centenary Institute of Cancer Medicine and Cell Biology, priority 2006, published 2008)
Where two headings read alike, the source gives them in different places.

Key:
myeloma cells = details: direct inhibition of NF-κB; cited from earlier work
myeloma [1] = details: cited from earlier work
[2] = system: prostate cancer cell line LNCaP; test: Bortezomib resistance (proliferation inhibition) assay, LNCaP; type: cell-based, human; details: compared with other non-myeloma cell lines, 5 days proliferation
Method: (§1) Cytotoxicity assays were performed essentially as described previously (16). For myeloma cell lines, some modifications were made due to their slow growth rate, non-adherence to the culture plate and sensitivity to sparse plating. Briefly, cells were seeded at 10,000 per well in 96-well plates in RPMI-1640 without phenol red (which interferes with detection of fluorescence). Bortezomib (Millennium Pharmaceuticals; Johnson & Johnson Pharmaceuticals) was applied in a concentration series along the long plate axis. After 5 days of proliferation, cells were permeabilised in situ by adding 5% by volume of 21 X Triton X-100 buffer (10 mM TrisHCl pH 7.4, 5 mM EDTA, 0.1% Triton X-100) and Sybr I Green (Invitrogen) 1:4000. The lysate was mixed thoroughly with a multi-channel pipette. One cycle of freeze and thaw was performed to ensure complete lysis. The fluorescence, measured on a plate reader (Wallac), was proportional to the number of viable cells at the end point. […]
(§2) Briefly, myeloma cell lines, prostate cancer cell lines and lymphoid cell lines were cultured in RPMI-1640 supplemented with 10% foetal calf serum, 100 units/mL penicillin G and 100 μg/mL streptomycin. […] Quantitation of spliced and unspliced XBP-1 and determination of sensitivity to Bortezomib was carried out as previously described (Examples 1.1, 1.2 and 2.1, respectively).

relapsed myeloma [3] = details: patients with relapsed myeloma, randomised trial, cited from earlier work
H929 myeloma cells = test: Bortezomib resistance (proliferation inhibition) assay, H929; type: cell-based, human
Method: Cytotoxicity assays were performed essentially as described previously (16). For myeloma cell lines, some modifications were made due to their slow growth rate, non-adherence to the culture plate and sensitivity to sparse plating. Briefly, cells were seeded at 10,000 per well in 96-well plates in RPMI-1640 without phenol red (which interferes with detection of fluorescence). Bortezomib (Millennium Pharmaceuticals; Johnson & Johnson Pharmaceuticals) was applied in a concentration series along the long plate axis. After 5 days of proliferation, cells were permeabilised in situ by adding 5% by volume of 21 X Triton X-100 buffer (10 mM TrisHCl pH 7.4, 5 mM EDTA, 0.1% Triton X-100) and Sybr I Green (Invitrogen) 1:4000. The lysate was mixed thoroughly with a multi-channel pipette. One cycle of freeze and thaw was performed to ensure complete lysis. The fluorescence, measured on a plate reader (Wallac), was proportional to the number of viable cells at the end point. The IC50 was determined as the concentration of drug that inhibited proliferation to 50% of the untreated controls (see FIG. 5A-5E).
(§3) H929 and RPMI8226 myeloma cells were transduced with virus as follows. […] Total XBP-1 and sensitivity to Bortezomib was determined as previously described (Example 1.1 and Example 2.1, respectively).

RPMI8226 myeloma cells = test: Bortezomib resistance (proliferation inhibition) assay, RPMI8226; type: cell-based, human
Method: as §1, with “After 5 days of proliferation, cells were permeabilised in situ by adding 5% by volume of 21 X Triton X-100 buffer (10 mM TrisHCl pH 7.4, 5 mM EDTA, 0.1% Triton X-100) and Sybr I Green (Invitrogen) 1:4000. The lysate was mixed thoroughly with a multi-channel pipette. One cycle of freeze and thaw was performed to ensure complete lysis.” left out
as §2, §3

refractory myeloma = details: cited from earlier work
P-glycoprotein = P-glycoprotein (Homo sapiens, UniProt P08183); details: cited from earlier work
Chain of P-glycoprotein (P08183 whole entry): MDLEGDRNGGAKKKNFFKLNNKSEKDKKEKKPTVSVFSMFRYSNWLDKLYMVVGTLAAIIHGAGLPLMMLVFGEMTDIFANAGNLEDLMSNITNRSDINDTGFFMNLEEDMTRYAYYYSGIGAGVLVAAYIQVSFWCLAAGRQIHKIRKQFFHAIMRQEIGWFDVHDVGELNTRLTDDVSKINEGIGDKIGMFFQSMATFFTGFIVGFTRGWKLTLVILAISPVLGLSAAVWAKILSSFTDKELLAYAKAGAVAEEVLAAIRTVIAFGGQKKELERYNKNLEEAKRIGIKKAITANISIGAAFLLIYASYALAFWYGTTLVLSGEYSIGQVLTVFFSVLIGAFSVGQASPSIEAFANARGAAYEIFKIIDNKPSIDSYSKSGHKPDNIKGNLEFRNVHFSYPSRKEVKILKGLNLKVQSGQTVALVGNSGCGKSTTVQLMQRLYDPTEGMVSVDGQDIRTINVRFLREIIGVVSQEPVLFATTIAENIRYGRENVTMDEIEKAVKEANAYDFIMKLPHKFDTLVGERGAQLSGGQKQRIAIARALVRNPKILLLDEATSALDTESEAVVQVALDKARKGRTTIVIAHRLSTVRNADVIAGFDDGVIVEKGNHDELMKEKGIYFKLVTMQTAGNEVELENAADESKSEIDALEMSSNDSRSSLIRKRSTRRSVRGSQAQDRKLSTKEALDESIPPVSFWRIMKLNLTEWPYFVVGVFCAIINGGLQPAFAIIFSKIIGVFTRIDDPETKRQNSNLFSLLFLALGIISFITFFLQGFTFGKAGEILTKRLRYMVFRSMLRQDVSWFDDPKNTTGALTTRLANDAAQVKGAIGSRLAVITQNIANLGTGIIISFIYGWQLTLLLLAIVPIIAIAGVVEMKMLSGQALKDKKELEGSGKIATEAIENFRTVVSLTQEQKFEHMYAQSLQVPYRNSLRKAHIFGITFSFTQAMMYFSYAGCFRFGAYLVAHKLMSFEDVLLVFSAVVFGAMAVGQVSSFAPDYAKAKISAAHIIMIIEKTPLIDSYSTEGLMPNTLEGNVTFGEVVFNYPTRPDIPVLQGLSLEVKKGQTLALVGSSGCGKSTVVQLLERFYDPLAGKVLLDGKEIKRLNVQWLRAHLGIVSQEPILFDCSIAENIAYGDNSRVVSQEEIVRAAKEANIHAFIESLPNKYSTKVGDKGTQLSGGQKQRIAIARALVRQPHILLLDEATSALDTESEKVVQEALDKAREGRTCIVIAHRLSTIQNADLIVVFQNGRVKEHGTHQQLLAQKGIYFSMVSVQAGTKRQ

relapsed myeloma [4] = details: single agent, relapsed disease; cited from earlier work
P-glycoprotein (P-gp) = P-glycoprotein (P-gp) (Homo sapiens, UniProt P08183); details: cyclosporin D derivative; cited from earlier work
Chain of P-glycoprotein (P-gp) (P08183 whole entry): as above

myeloma [5] = details: phase III randomised control trial; cited from earlier work

Compound: O=C(Nc1cc(Cl)cc2c1[nH]c1cnccc12)c1cccnc1 [PS-1145]
- inhibition of proliferation of myeloma cells (myeloma cells): insufficient to completely inhibit the proliferation

Compound: interferon-α
- effect of maintenance therapy on response and survival (myeloma [1]): marginal effect in terms of prolonging response and survival

Compound: CC(C)C[C@H](NC(=O)[C@H](Cc1ccccc1)NC(=O)c1cnccn1)B(O)O [Bortezomib]
- sensitivity of cell line to Bortezomib (rank) [2]: most sensitive to Bortezomib of the non-myeloma cell lines
- overall response rate (relapsed myeloma [3]; p<0.001): 38%
- complete response rate (relapsed myeloma [3]): 6%
- one-year survival rate (relapsed myeloma [3]): 80%
- change of sensitivity to Bortezomib after shRNA knockdown of XBP-1 (H929 myeloma cells; H929 cells, XBP-1 knockdown): decrease in sensitivity to Bortezomib but the change was modest
- sensitivity of cell line to Bortezomib (rank) (H929 myeloma cells; myeloma cell lines, 5 days proliferation): most sensitive to Bortezomib
- change of sensitivity to Bortezomib after shRNA knockdown of XBP-1 (RPMI8226 myeloma cells; RPMI8226 cells, XBP-1 knockdown): No such effect on sensitivity to Bortezomib
- change of sensitivity to Bortezomib after overexpression of spliced or unspliced XBP-1 cDNA (RPMI8226 myeloma cells; RPMI8226 transfectants vs vector control): only a small effect on sensitivity
- side effects (refractory myeloma; a significant proportion of patients): fatigue, nausea, diarrhoea, thrombocytopenia, anaemia and peripheral neuropathy
- overall response rate (refractory myeloma; refractory cases, phase I and II trials): ~30%
- primary resistance, proportion of relapsed patients (refractory myeloma; relapsed patients): about 60%
- P-glycoprotein substrate (P-glycoprotein): not a significant P-glycoprotein substrate

Compound: O=C1CCC(N2C(=O)c3ccccc3C2=O)C(=O)N1 (stereo not drawn) [thalidomide]
- overall response rate (relapsed myeloma [4]): ~32%
- patients with at least very good partial response or complete response (relapsed myeloma [4]): approximately 10%

Compound: C/C=C/C[C@@H](C)C(=O)[C@H]1C(=O)N[C@@H](C(C)C)C(=O)N(C)CC(=O)N(C)[C@@H](CC(C)C)C(=O)N[C@@H](C(C)C)C(=O)N(C)[C@@H](CC(C)C)C(=O)N[C@@H](C)C(=O)N[C@H](C)C(=O)N(C)[C@@H](CC(C)C)C(=O)N(C)[C@@H](CC(C)C)C(=O)N(C)[C@@H](C(C)C)C(=O)N1C [Valspodar]
- potency of inhibitory activity on P-gp (relative) (P-glycoprotein (P-gp)): 5 times
- toxicity on addition of the P-gp inhibitor (myeloma [5]): increased toxicity
